Legend:
[1] = biological target: T1, L-type calcium channel (LTCC) (Rattus norvegicus, UniProt P22002); assay: FLIPR calcium mobilization assay for L-type calcium channel; format: cell-based; conditions: calcium mobilization in vitro assay; HEK293 cells expressing recombinant rat LTCC subunits (α1c, α2δ, β1), 90 mM KCl
T1 construct: The 6.5 kb cDNA encoding the L-type calcium channel α1c subunit was cloned by PCR amplification from rat heart cDNA; expressed in transfected cells
Protocol: Recombinant human embryonal kidney cells (HEK293, ATCC) stably transfected with either N-type calcium channel (NTCC) subunits (α1b, α2δ, and (β3) or L-type calcium channel (LTCC) subunits (α1c, α2δ, and β1) were routinely cultured in growth medium consisting of Dulbecco's Modified Eagles Medium containing 10% FBS, 100 U/mL penicillin, 100 μg/mL streptomycin, 4 mM L-glutamine, 500 μg/mL geneticin (G418), 20 μg/mL Blasticidin S (InVivogen, San Diego, Calif.) and 500 μg/mL zeocin (InVivogen).
FLIPR Calcium Mobilization Assay for L-type Calcium Channel. One day prior to performing this assay, HEK293 cells stably expressing recombinant rat L-type calcium channel (LTCC) subunits (α1c, α2δ, and β1) were trypsinized, then seeded on poly-D-lysine-coated 96-well clear-bottom black plates (Becton Dickinson, Franklin Lakes, N.J.) at 75,000 cells/well. On the day of the assay, the plates were washed with LTCC wash buffer (127 mM NaCl, 2 mM MgCl2, 700 μM NaH2PO4, 5 mM CaCl2, 5 mM NaHCO3, 8 mM HEPES, 10 mM glucose, pH 7.4), then loaded with 0.1 mL of LTCC wash buffer containing Fluo-4 (3 μM final concentration, Molecular Probes, Eugene, Oreg.). After 1 hour, the cells were washed with 0.1 mL LTCC wash buffer and resuspended in 0.05 mL LTCC assay buffer (same composition as LTCC wash buffer). Plates were then transferred to a FLIPR^96 for assay. The FLIPR measured basal Fluo-4 fluorescence for 15 seconds, then added 0.05 mL of each compound tested diluted in LTCC assay buffer at final concentrations ranging from about 846 pM to about 17 μM. Fluo-4 fluorescence was then measured for 5 minutes. 0.1 mL KCl agonist dissolved in LTCC assay buffer was then added to the cells to produce a final concentration of 90 mM KCl, and fluorescence was measured for another 45 seconds. Data were collected over the entire time course and analyzed using Excel, Graph Pad Prism, or an in-house regression analysis software.

[2] = biological target: T2, N-type calcium channel (NTCC) (Homo sapiens, UniProt Q00975); assay: FLIPR calcium mobilization assay for N-type calcium channel; format: cell-based; conditions: calcium mobilization in vitro assay; differentiated IMR32 cells, 5 μM nitrendipine, 90 mM KCl
T2 construct: host or cells: IMR32 cells, differentiated with dibutyryl cAMP and bromodeoxyuridine
Protocol: Cell maintenance and differentiation. Unless noted otherwise, cell culture reagents were purchased from Mediatech of Herndon, Md. IMR32 cells (American Type Culture Collection, ATCC, Manassas, Va.) were routinely cultured in growth medium consisting of minimum essential medium containing 10% fetal bovine serum (FBS, Hyclone, Logan, Utah), 100 U/mL penicillin, 100 μg/mL streptomycin, 2 mM L-glutamine, 1 mM sodium pyruvate, and 1×MEM non-essential amino acids. 80-90% confluent flasks of cells were differentiated using the following differentiation medium: Growth medium plus 1 mM dibutyryl cyclic AMP (Sigma, St. Louis, Mo.), and 2.5 μM bromodeoxyuridine (Sigma). Cells were differentiated for 8 days by replacing differentiation medium every 2-3 days.
FLIPR Calcium Mobilization Assay for N-type Calcium Channel. One day prior to performing this assay, differentiated IMR32 cells were treated with 1× CellStripper, and seeded on poly-D-lysine-coated 96-well clear-bottom black plates (Becton Dickinson, Franklin Lakes, N.J.) at 200,000 cells/well. […] Plates were then transferred to a Fluorimetric Imaging Plate Reader (FLIPR^96, Molecular Devices, Inc., Sunnyvale, Calif.) for assay. The FLIPR measured basal Fluo-4 fluorescence for 315 seconds (i.e., 5 minutes and 15 seconds), then added 0.1 mL KCl agonist dissolved in IMR32 buffer and measured fluorescence for another 45 seconds. Final test compound concentrations on the cells after FLIPR read ranged from about 846 pM to about 17 μM, final nitrendipine concentration was 5 μM, and final KCl concentration was 90 mM. Data were collected over the entire time course and analyzed using Excel, Graph Pad Prism (version 3.02, Graph Pad, San Diego, Calif.), or an in-house non-linear regression analysis software.

T1 sequence (P22002 whole entry): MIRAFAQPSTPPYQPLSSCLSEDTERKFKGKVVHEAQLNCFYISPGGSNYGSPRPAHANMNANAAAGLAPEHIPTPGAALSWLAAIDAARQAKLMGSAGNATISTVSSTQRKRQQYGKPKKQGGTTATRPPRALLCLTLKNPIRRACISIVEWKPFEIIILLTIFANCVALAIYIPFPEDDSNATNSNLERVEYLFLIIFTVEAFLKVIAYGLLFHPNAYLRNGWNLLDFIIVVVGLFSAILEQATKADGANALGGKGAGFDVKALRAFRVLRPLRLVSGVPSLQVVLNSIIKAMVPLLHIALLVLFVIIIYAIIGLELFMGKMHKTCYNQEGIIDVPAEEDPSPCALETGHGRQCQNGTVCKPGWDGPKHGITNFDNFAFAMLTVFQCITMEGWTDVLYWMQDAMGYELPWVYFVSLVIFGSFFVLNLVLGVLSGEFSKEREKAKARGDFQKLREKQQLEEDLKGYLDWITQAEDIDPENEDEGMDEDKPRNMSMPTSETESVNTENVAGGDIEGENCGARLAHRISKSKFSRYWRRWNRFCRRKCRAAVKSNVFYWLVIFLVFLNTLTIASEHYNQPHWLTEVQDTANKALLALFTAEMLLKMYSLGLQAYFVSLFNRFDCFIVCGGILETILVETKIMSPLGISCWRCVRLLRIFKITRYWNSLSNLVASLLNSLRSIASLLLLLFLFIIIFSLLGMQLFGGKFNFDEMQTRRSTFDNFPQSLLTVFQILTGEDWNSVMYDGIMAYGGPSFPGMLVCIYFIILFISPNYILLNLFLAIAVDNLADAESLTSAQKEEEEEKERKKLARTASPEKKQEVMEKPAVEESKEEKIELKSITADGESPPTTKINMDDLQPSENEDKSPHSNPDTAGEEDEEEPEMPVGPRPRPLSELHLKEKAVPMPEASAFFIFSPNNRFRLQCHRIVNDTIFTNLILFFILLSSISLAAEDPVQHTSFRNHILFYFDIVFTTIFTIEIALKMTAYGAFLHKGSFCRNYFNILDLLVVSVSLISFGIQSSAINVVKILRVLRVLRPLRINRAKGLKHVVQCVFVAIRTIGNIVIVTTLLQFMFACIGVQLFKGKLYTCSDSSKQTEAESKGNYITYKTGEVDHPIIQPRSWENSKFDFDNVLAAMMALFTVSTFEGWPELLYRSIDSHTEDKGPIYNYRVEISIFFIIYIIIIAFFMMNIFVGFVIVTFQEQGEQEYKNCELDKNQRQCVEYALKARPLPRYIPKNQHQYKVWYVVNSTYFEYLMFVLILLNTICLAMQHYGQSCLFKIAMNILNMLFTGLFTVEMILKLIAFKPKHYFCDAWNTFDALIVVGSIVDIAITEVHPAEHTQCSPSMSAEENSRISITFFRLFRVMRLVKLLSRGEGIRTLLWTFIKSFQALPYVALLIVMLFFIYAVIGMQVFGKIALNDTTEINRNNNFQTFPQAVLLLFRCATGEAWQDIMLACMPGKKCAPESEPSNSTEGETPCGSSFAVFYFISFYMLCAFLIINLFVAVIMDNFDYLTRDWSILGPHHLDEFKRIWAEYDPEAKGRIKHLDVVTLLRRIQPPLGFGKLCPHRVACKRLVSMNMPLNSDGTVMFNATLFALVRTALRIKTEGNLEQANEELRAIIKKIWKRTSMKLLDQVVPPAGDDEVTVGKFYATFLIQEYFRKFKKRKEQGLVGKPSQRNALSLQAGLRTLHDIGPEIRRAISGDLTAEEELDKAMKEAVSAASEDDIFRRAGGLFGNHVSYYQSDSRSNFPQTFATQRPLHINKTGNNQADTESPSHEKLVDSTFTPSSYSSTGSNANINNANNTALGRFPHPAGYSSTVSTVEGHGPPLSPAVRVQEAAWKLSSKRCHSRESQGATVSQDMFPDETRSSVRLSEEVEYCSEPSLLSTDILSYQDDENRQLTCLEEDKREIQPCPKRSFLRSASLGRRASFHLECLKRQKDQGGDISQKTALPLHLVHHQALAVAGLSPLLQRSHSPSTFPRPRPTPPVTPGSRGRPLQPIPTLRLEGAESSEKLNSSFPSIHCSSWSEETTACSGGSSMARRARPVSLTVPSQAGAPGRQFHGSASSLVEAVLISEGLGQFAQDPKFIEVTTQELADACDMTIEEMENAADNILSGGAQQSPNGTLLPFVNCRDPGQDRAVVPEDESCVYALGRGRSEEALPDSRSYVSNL

| SMILES | IC50 [1] | IC50 [2] |
| --- | --- | --- |
| N#Cc1cccc(C(=NOC2CCN(S(=O)(=O)c3ccc(OC(F)(F)F)cc3)CC2)C2CC2)c1 (racemic) [Example 2, 3-(Cyclopropyl(1-(4-(trifluoromethoxy)phenylsulfonyl)piperidin-4-yloxyimino)methyl)benzonitrile] | > 20 µM | 200 nM |
| O=S(=O)(c1ccc(OC(F)(F)F)cc1)N1CCC(ON=C(c2ccc(F)cc2)c2ccc(F)cc2)CC1 [Example 3, Bis(4-fluorophenyl)methanone O-1-(4-(trifluoromethoxy)phenylsulfonyl)piperidin-4-yl oxime] | > 20 µM | 100 nM |
| C/C(=N\OC1CCN(S(=O)(=O)c2ccc(OC(F)(F)F)cc2)CC1)c1cccc(C#N)c1 [Example 4, (E)-3-(1-(1-(4-(Trifluoromethoxy)phenylsulfonyl)piperidin-4-yloxyimino)ethyl)benzonitrile] | > 20 µM | 180 nM |

Source: US8563732B2, “Oxyimino compounds and the use thereof” (Shionogi & Co., Ltd., priority 2007, dated 2013)
